Laboratory results reported in ChEMBL document CHEMBL4190172 (Medchemcomm, 2016).
Activity calls are given as the source filed them. The calls are words filed in the database; no cut-off is given here.

Tests used:
[1] = target: Histone deacetylase 1 (Homo sapiens) (UniProt Q13547); experiment: Inhibition of recombinant human C-terminal His/flag-tagged HDAC1 using Boc-Lys-(Ac)-AMC as substrate after 1 hr by fluorescence assay
[2] = target: Histone deacetylase 2 (Homo sapiens) (UniProt Q92769); experiment: Inhibition of recombinant human C-terminal flag-tagged HDAC2 using Boc-Lys-(Ac)-AMC as substrate after 1 hr by fluorescence assay
[3] = target: T1, Histone deacetylase 3/Nuclear receptor corepressor 2 (HDAC3/NCoR2) (Homo sapiens) (UniProt O15379+Q9Y618); experiment: Inhibition of recombinant human C-terminal His-tagged HDAC3/NcoR2 using Boc-Lys-(Ac)-AMC as substrate after 1 hr by fluorescence assay; format: protein-complex assay
[4] = target: Histone deacetylase 1 (Homo sapiens) (UniProt Q13547); experiment: Inhibition of recombinant human C-terminal His/flag-tagged HDAC1 at 2 to 16 uM using Boc-Lys-(Ac)-AMC as substrate in presence of Lys-C by fluorescence assay; conditions: TDE = time-dependent effect
[5] = target: Histone deacetylase 2 (Homo sapiens) (UniProt Q92769); experiment: Inhibition of recombinant human C-terminal His/flag-tagged HDAC2 at 2 to 16 uM using Boc-Lys-(Ac)-AMC as substrate in presence of Lys-C by fluorescence assay; conditions: TDE = time-dependent effect
[6] = target: T1, Histone deacetylase 3/Nuclear receptor corepressor 2 (HDAC3/NCoR2) (Homo sapiens); experiment: Inhibition of recombinant human C-terminal His/flag-tagged HDAC3/NcoR2 at 2 to 16 uM using Boc-Lys-(Ac)-AMC as substrate in presence of Lys-C by fluorescence assay; format: protein-complex assay; conditions: TDE = time-dependent effect
[7] = target: Histone deacetylase 1 (Homo sapiens) (UniProt Q13547); experiment: Inhibition of recombinant human C-terminal His/flag-tagged HDAC1 at 2 to 16 uM using Boc-Lys-(Ac)-AMC as substrate preincubated for 1 hr followed by substrate addition in presence of Lys-C by fluorescence assay
[8] = target: Histone deacetylase 2 (Homo sapiens) (UniProt Q92769); experiment: Inhibition of recombinant human C-terminal His/flag-tagged HDAC2 at 2 to 16 uM using Boc-Lys-(Ac)-AMC as substrate preincubated for 1 hr followed by substrate addition in presence of Lys-C by fluorescence assay
[9] = target: T1, Histone deacetylase 3/Nuclear receptor corepressor 2 (HDAC3/NCoR2) (Homo sapiens); experiment: Inhibition of recombinant human C-terminal His/flag-tagged HDAC3/NcoR2 at 2 to 16 uM using Boc-Lys-(Ac)-AMC as substrate preincubated for 1 hr followed by substrate addition in presence of Lys-C by fluorescence assay; format: protein-complex assay
RAW264.7 [10] = experiment: Cytotoxicity against LPS/IFNgamma-stimulated mouse RAW264.7 cells assessed as decrease in cell viability incubated for 16 hrs followed by LPS/IFNgamma stimulation for last 4 hrs by MTS assay; format: cell-based; conditions: raw264.7, 16 h
[11] = target: Transcription factor p65 (Mus musculus) (UniProt Q04207); experiment: Inhibition of NF-kappaB p65 transcriptional activity in LPS/IFNgamma-stimulated mouse RAW264.7 cells at 10 uM incubated for 20 hrs followed by LPS/IFNgamma stimulation for last 4 hrs by SEAP reporter gene assay; format: cell-based
[12] = target: Transcription factor p65 (Mus musculus) (UniProt Q04207); experiment: Inhibition of NF-kappaB p65 transcriptional activity in LPS/IFNgamma-stimulated mouse RAW264.7 cells at 1 to 5 uM incubated for 20 hrs followed by LPS/IFNgamma stimulation for last 4 hrs by SEAP reporter gene assay; format: cell-based
[13] = target: Transcription factor p65 (Mus musculus) (UniProt Q04207); experiment: Inhibition of NF-kappaB p65 nuclear translocation in LPS/IFNgamma-stimulated mouse RAW264.7 cells at 1 uM incubated for 20 hrs followed by LPS/IFNgamma addition measured after 1 hr by Hoechst 33342 staining based immunofluorescence microscopy; format: cell-based
RAW264.7 [14] = experiment: Antiinflammatory activity in LPS/IFNgamma-stimulated mouse RAW264.7 cells assessed as decrease in iNOS mRNA level at 10 uM incubated for 20 hrs followed by LPS/IFNgamma stimulation for last 4 hrs by qRT-PCR analysis; format: functional, cell-based
[15] = target: T2, Histone deacetylase 8 (Homo sapiens) (UniProt Q9BY41); experiment: Inhibition of recombinant human C-terminal His-tagged HDAC8 up to 50 uM using Boc-Lys-(Ac)-AMC as substrate after 1 hr by fluorescence assay
T2 sequence (whole entry): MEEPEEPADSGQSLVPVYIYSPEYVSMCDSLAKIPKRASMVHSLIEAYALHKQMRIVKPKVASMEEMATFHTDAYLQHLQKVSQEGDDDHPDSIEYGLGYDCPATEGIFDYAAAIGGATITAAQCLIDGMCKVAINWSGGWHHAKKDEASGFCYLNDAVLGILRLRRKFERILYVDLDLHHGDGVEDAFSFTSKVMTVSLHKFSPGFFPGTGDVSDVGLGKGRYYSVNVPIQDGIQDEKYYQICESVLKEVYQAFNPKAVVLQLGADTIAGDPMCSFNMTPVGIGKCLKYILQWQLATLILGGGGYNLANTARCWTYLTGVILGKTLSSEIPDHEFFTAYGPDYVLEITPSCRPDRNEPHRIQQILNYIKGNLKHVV

RAW264.7 [16] = experiment: Antiinflammatory activity in LPS/IFNgamma-stimulated mouse RAW264.7 cells assessed as decrease in TNFalpha mRNA level incubated for 20 hrs followed by LPS/IFNgamma stimulation for last 4 hrs by qRT-PCR analysis; format: functional, cell-based
RAW264.7 [17] = experiment: Antiinflammatory activity in LPS/IFNgamma-stimulated mouse RAW264.7 cells assessed as decrease in IL-6 mRNA level incubated for 20 hrs followed by LPS/IFNgamma stimulation for last 4 hrs by qRT-PCR analysis; format: functional, cell-based
RAW264.7 [18] = experiment: Antiinflammatory activity in LPS/IFNgamma-stimulated mouse RAW264.7 cells assessed as decrease in IL-6 mRNA level at 10 uM incubated for 20 hrs followed by LPS/IFNgamma stimulation for last 4 hrs by qRT-PCR analysis; format: functional; set-up: scale not given: the % may be the effect or the level left
RAW264.7 [19] = experiment: Antiinflammatory activity in LPS/IFNgamma-stimulated mouse RAW264.7 cells assessed as decrease in IL-1beta mRNA level at 1 to 10 uM incubated for 20 hrs followed by LPS/IFNgamma stimulation for last 4 hrs by qRT-PCR analysis; format: functional, cell-based
RAW264.7 [20] = experiment: Antiinflammatory activity in LPS/IFNgamma-stimulated mouse RAW264.7 cells assessed as decrease in IL-12b mRNA level at 1 to 10 uM incubated for 20 hrs followed by LPS/IFNgamma stimulation for last 4 hrs by qRT-PCR analysis; format: functional, cell-based

Sequence of Histone deacetylase 1 (Homo sapiens) (Q13547 whole entry): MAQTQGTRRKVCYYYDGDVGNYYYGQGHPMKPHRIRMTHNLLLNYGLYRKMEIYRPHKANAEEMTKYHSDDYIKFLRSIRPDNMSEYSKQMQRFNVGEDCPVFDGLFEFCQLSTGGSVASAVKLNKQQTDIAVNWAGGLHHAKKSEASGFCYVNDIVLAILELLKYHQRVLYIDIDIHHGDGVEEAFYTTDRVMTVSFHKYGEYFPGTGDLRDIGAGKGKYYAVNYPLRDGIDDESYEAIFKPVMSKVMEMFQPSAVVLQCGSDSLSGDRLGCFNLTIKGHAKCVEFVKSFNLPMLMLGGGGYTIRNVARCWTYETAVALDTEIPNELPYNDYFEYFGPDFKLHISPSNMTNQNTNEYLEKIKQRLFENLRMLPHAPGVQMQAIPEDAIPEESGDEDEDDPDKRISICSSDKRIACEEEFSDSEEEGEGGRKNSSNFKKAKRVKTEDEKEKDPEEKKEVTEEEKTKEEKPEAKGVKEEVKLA
Sequence of Histone deacetylase 2 (Homo sapiens) (Q92769 whole entry): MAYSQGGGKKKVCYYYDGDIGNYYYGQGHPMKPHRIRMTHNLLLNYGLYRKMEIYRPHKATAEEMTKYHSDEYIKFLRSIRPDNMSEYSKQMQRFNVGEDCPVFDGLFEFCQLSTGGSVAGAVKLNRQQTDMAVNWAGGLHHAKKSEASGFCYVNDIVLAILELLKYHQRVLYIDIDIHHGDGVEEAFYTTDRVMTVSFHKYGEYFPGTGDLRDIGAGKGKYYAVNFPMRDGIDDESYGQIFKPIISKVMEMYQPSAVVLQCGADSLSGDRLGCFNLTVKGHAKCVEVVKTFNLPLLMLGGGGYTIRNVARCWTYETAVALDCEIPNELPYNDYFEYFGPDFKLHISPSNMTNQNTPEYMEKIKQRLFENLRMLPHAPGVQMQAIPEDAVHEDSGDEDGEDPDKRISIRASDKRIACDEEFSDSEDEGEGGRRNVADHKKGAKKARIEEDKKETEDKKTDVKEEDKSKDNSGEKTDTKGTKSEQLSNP
Sequence of Transcription factor p65 (Mus musculus) (Q04207 whole entry): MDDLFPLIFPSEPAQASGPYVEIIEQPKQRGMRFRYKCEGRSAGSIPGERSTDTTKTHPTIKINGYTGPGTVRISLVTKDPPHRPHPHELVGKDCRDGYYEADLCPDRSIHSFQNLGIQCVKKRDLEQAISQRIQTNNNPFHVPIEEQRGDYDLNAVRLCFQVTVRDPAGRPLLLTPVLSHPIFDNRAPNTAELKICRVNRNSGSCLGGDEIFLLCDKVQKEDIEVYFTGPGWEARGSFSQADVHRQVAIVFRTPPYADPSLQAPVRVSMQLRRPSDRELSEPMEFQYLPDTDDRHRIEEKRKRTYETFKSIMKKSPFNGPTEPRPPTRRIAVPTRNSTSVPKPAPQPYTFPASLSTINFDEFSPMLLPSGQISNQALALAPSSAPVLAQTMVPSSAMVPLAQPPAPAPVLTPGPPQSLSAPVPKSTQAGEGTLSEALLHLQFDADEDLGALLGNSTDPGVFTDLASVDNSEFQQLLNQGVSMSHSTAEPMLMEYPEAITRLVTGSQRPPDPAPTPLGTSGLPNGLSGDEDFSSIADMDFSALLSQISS

inhibition [1] | inhibition [2] | inhibition [3] | inhibition [4] | inhibition [5] | inhibition [6] | inhibition [7] | inhibition [8] | inhibition [9] | inhibition [11] | inhibition [12] | inhibition [13] | inhibition [15] | SMILES | Activity (RAW264.7 [10]) | Activity (RAW264.7 [14]) | Activity (RAW264.7 [16]) | Activity (RAW264.7 [17]) | Activity (RAW264.7 [18]) | Activity (RAW264.7 [19]) | Activity (RAW264.7 [20])
Active | Active | Active | Tde | Tde | Tde | Active | Active | Active | inactive | inactive | inactive |  | Nc1ccccc1NC(=O)c1ccc(CNc2cccc(/N=N/c3ccccc3)c2)cc1 | Non-Toxic | inactive |  |  |  |  | 
Active | Active | Active | Tde | Tde | Tde | Active | Active | Active | < 50% |  | Active | inactive | CC(C)(C)OC(=O)Nc1ccccc1NC(=O)c1ccc(CNc2ccccc2/N=N/c2ccccc2)cc1 | Non-Toxic | inactive |  |  |  |  | 
 |  |  |  |  |  |  |  |  |  |  |  | inactive | Nc1ccccc1NC(=O)c1ccc(CNc2ccccc2/N=N/c2ccccc2)cc1 |  |  |  |  |  |  | 
Active | Active | Active | Tde | Tde | Tde | Active | Active | Active | < 50% |  | Active |  | Nc1ccccc1NC(=O)c1ccc(CNc2ccc(/N=N/c3ccccc3)cc2)cc1 | Non-Toxic | Active | Dose-dependent effect | Dose-dependent effect | 90% | Active | Active
